Experimental data reported in patent US5075322A, “Selenophen derivatives, a preparation process of the same and therapeutical compositions containing them” (Societe de Conseils de Recherches et d'Applications …, priority 1989, dated 1991).

Columns and labels:
[1] = system: ovalbumine-induced bronchospasm; test: ovalbumine-induced bronchospasm in anaesthetized passively sensitized guinea-pigs; type: in vivo
Protocol: In the ovalbumine-induced bronchospasm in anaesthetized passively sensitized guinea-pigs, compound XI and ketotifen, administered 1 hour before the injection of ovalbumine, inhibit the bronchoconstriction (>90%) in a dose-dependant-manner respectively with following ED50 (P.O.)
For both products, the activity disappears at 24 hours.
The kinetic results, after administration by oral route of the said compounds at 0.1 mg/kg and 0.05 mg/kg (P.O.), for 1 to several hours before ovalbumine injection (1 mg/kg), are reported respectively in tables 1 and 2.
(§1) The different symbols NS, *, ** and *** which may be found in the different tables, mean that the result is respectively not significative, significative, very significative and highly significative.

[2] = system: histamine induced bronchospasm; test: histamine-induced bronchospasm in artificially ventilated anaesthetized guinea pigs; type: in vivo; conditions: Cavia porcellus, po, 1 h, read-out: ED50 (P.O.)
[3] = system: ovalbumine-induced bronchospasm; test: ovalbumine-induced bronchoconstriction in passively sensitized rats; type: in vivo; conditions: for Percentage of bronchoconstriction / Percentage of effect: Table IV
Text: as §1

[4] = system: histamine induced bronchospasm; test: histamine-induced bronchospasm in artificially ventilated anaesthetized guinea pigs; type: in vivo; conditions: for % of bronchoconstriction / % of effect: Table V, 0.1 mg/kg PO
Protocol: as §1
The kinetic results of the administration of compound XI and ketotifen by oral route at 0.1 mg/kg (P.O.), 1 to 27 h histamine injection (15 mg IV), are reported in table 5.

rat washed platelets = test: PAF-induced aggregation of rat washed platelets in vitro; type: cell-based; conditions: Platelet, PAF 5.10^-10 M
Text: In vitro: effects on aggregation (IC50) induced by PAF (5·10^-10 M), rat washed platelets are as follow: IC50 Compound XI 2.10^-6 M. IC50 Ketotifen 10^-5 M.

[5] = anti-allergic activity (general statements)
[6] = system: ovalbumine-induced bronchospasm; test: ovalbumine-induced bronchospasm in actively sensitized guinea pigs; type: in vivo; conditions: Table III, 0.1 mg/kg PO
Text: as §1

[7] = system: B.S.A.-induced immune lethality in mice; test: B.S.A.-induced immune lethality (anaphylactic shock) in actively sensitized mice; type: in vivo
Text: as §1
At the same dose, ketotifen has no effect.

PAF induced bronchospasm = test: PAF-induced bronchospasm in artificially-ventilated anaesthetized guinea pigs; type: in vivo; conditions: for Percentage of bronchoconstriction / Percentage of effect: Table VII, PAF 60 mg/kg IV
Text: as §1

[8] = Table I, 0.1 mg/kg PO, pretreatment 1 h
[9] = Table I, 0.1 mg/kg PO, pretreatment 3 h
[10] = Table I, 0.1 mg/kg PO, pretreatment 6 h
[11] = Table I, 0.1 mg/kg PO, pretreatment 9 h
[12] = Table I, 0.1 mg/kg PO, pretreatment 15 h
[13] = Table I, 0.1 mg/kg PO, pretreatment 18 h
[14] = Table I, 0.1 mg/kg PO, pretreatment 21 h
[15] = Table I, 0.1 mg/kg PO, pretreatment 24 h
[16] = Table II, 0.05 mg/kg PO, pretreatment 1 h
[17] = Table II, 0.05 mg/kg PO, pretreatment 3 h
[18] = Table II, 0.05 mg/kg PO, pretreatment 6 h
[19] = Table II, 0.05 mg/kg PO, pretreatment 9 h
[20] = Table II, 0.05 mg/kg PO, pretreatment 15 h
[21] = Table II, 0.05 mg/kg PO, pretreatment 18 h
[22] = Table II, 0.05 mg/kg PO, pretreatment 21 h

SMILES: CN1CCC(=C2c3ccccc3CC(=O)c3[se]ccc32)CC1 [Compound XI, 4-(1-methyl 4-piperidyliden) 9,10-dihydro 4H-benzo [4,5] cyclohepta [1,2-b] selenophen 10-one]
- time at which the activity disappears ([1]; 0.1 mg/kg and 0.05 mg/kg P.O.): 24 h
- ED50 ([1]; Cavia porcellus, po, 1 h, read-out: ED50 (P.O.)): 0.0572 µmol/kg
- % of bronchoconstriction [1, 8]: 6.9 ± 1.0%
- % of effect [1, 8]: -91.5 ± 1.3%
- % of bronchoconstriction [1, 9]: 3.9 ± 1.1%
- % of effect [1, 9]: -93.7 ± 1.7%
- % of bronchoconstriction [1, 10]: 15.0 ± 11.5%
- % of effect [1, 10]: -75.9 ± 18.4%
- % of bronchoconstriction [1, 11]: 35.7 ± 18.8%
- % of effect [1, 11]: -60.1 ± 21.1%
- % of bronchoconstriction [1, 12]: 38.9 ± 13.7%
- % of effect [1, 12]: -50.7 ± 17.3%
- % of bronchoconstriction [1, 13]: 36.8 ± 17.5%
- % of effect [1, 13]: -62.0 ± 18.1%
- % of bronchoconstriction [1, 14]: 73.3 ± 14.2%
- % of effect [1, 14]: -24.3 ± 14.7%
- % of bronchoconstriction [1, 15]: 45.4 ± 15.2%
- % of effect [1, 15]: -27.1 ± 24.4%
- % of bronchoconstriction [1, 16]: 13.2 ± 5.4%
- % of effect [1, 16]: -85.1%
- % of bronchoconstriction [1, 17]: 17.7 ± 7.0%
- % of effect [1, 17]: -80.5%
- % of bronchoconstriction [1, 18]: 38.3 ± 16.5%
- % of effect [1, 18]: -60.4%
- % of bronchoconstriction [1, 19]: 49.2 ± 16.7%
- % of effect [1, 19]: -49.2%
- % of bronchoconstriction [1, 20]: 61.6 ± 18.7%
- % of effect [1, 20]: -6.5%
- % of bronchoconstriction [1, 21]: 50.7 ± 20.4%
- % of effect [1, 21]: -48.3%
- % of bronchoconstriction [1, 22]: 94.6 ± 4.4%
- % of effect [1, 22]: -3.5%
- inhibition of bronchoconstriction ([1]; administered 1 hour before ovalbumine, P.O., dose-dependent): > 90%
- ED50 [2]: 0.0169 µmol/kg
- Percentage of bronchoconstriction ([3]; 0.1 mg/kg PO): 18.1 ± 6.3%
- Percentage of effect ([3]; 0.1 mg/kg PO): -49.4%
- Percentage of bronchoconstriction ([3]; 1 mg/kg PO): 11.2 ± 2.7%
- Percentage of effect ([3]; 1 mg/kg PO): -68.7%
- inhibition of bronchoconstriction (in words) ([3]; passively sensitized rats): inhibits the bronchoconstriction in a dose-dependant manner
- % of bronchoconstriction ([4]; 1 h): 2.0 ± 0.8%
- % of effect ([4]; 1 h): -97.5 ± 1.0%
- % of bronchoconstriction ([4]; 3 h): 1.0 ± 1.0%
- % of effect ([4]; 3 h): -98.8 ± 1.2%
- % of bronchoconstriction ([4]; 6 h): 5.4 ± 3.2%
- % of effect ([4]; 6 h): -93.5 ± 3.8%
- % of bronchoconstriction ([4]; 9 h): 4.9 ± 1.7%
- % of effect ([4]; 9 h): -93.6 ± 2.3%
- % of bronchoconstriction ([4]; 15 h): 36.6 ± 8.4%
- % of effect ([4]; 15 h): -48.2 ± 11.8%
- % of bronchoconstriction ([4]; 18 h): 34.9 ± 18.1%
- % of effect ([4]; 18 h): 61.7 ± 19.9%
- % of bronchoconstriction ([4]; 21 h): 52.9 ± 9.7%
- % of effect ([4]; 21 h): 37.6 ± 11.5%
- % of bronchoconstriction ([4]; 24 h): 37.9 ± 9.9%
- % of effect ([4]; 24 h): -42.3 ± 15.0%
- % of bronchoconstriction ([4]; 27 h): 76.8 ± 10.2%
- % of effect ([4]; 27 h): +6.3 ± 14.1%
- inhibition of bronchoconstriction (in words) ([4]; administered 1 hour before histamine (15 mg IV)): inhibit significantly the bronchoconstriction in a dose-dependant-manner
- duration of total inhibition of the bronchospasm ([4]; during the first hours, 0.1 mg/kg P.O.): 9 h
- IC50 (rat washed platelets): 2000 nM
- anti-allergic activity compared with compound X [5]: higher activity than compound X
- histamine and ovalbumine antagonist activity ([5]; oral drug): powerful histamine and ovalbumine antagonist
- % of bronchoconstriction ([6]; pretreatment 1 h): 3.5 ± 1.1%
- % of effect ([6]; pretreatment 1 h): -96.1 ± 1.3%
- % of bronchoconstriction ([6]; pretreatment 3 h): 5.0 ± 1.6%
- % of effect ([6]; pretreatment 3 h): -93.4 ± 2.1%
- % of bronchoconstriction ([6]; pretreatment 6 h): 2.1 ± 0.6%
- % of effect ([6]; pretreatment 6 h): -97.3 ± 0.8%
- % of bronchoconstriction ([6]; pretreatment 9 h): 35.5 ± 15.9%
- % of effect ([6]; pretreatment 9 h): -61.1 ± 22.2%
- % of bronchoconstriction ([6]; pretreatment 15 h): 42.2 ± 16.6%
- % of effect ([6]; pretreatment 15 h): -50.6 ± 19.5%
- % of bronchoconstriction ([6]; pretreatment 18 h): 67.1 ± 19.0%
- % of effect ([6]; pretreatment 18 h): +22.7 ± 34.8%
- % of bronchoconstriction ([6]; pretreatment 21 h): 50.1 ± 21.6%
- % of effect ([6]; pretreatment 21 h): -8.3 ± 39.5%
- protective effect (in words) ([7]; 0.275 mg/kg P.O.): shows a protective effect
- Mortality at 24 hours, % of mortality ([7]; 0.275 mg/kg PO): 20%
- Mortality at 24 hours, % of variation ([7]; 0.275 mg/kg PO): -67.5%
- Mortality at 24 hours, number of killed ([7]; 0.275 mg/kg PO): 2/10
- Mortality at 24 hours, % of mortality ([7]; 0.550 mg/kg PO): 10%
- Mortality at 24 hours, % of variation ([7]; 0.550 mg/kg PO): -83.7%
- Mortality at 24 hours, number of killed ([7]; 0.550 mg/kg PO): 1/10
- inhibition of PAF induced bronchospasm (in words) (PAF induced bronchospasm; 1 hour before PAF, 0.1 mg/kg): significantly inhibits the bronchospasm
- Percentage of bronchoconstriction (PAF induced bronchospasm; 0.1 mg/kg PO): 29.4 ± 7.9%
- Percentage of effect (PAF induced bronchospasm; 0.1 mg/kg PO): -62.5%
- Percentage of bronchoconstriction (PAF induced bronchospasm; 1 mg/kg PO): 23.0 ± 9.7%
- Percentage of effect (PAF induced bronchospasm; 1 mg/kg PO): -70.6%
